“Also recorded” adds a separate entry of the source. Like-named read-outs stand apart in the source and are kept apart here.
Experiments:
AtD14 = target: T1, AtD14 (Arabidopsis thaliana, UniProt Q9SQR3); assay: Competitive inhibition of AtD14 with YLG as substrate; assay type: biochemical
T1 construct: His tag; made in house; host or cells: E. coli BL21
T1 sequence (Q9SQR3 1-267): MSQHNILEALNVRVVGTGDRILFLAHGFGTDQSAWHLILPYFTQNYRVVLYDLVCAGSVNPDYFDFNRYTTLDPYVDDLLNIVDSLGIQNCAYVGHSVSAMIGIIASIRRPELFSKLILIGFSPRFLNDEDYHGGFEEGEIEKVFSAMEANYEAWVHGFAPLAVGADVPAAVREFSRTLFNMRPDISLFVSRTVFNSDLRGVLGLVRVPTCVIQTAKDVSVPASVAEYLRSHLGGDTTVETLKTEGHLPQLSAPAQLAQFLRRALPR
Procedure: (§1) The excitation and emission wavelengths of YLG are 480 and 520 nm, respectively. We used a fluorescence spectrophotometer (CARY Eclipse) to detect the fluorescence intensity change of YLG during the enzymatic hydrolysis assay process. All the testing compounds and YLG were dissolved in DMSO and prepared as stock solutions just before use. […] The changes of fluorescence at 520 nm of each well were recorded every 1 min for 30 min. Using the reaction mixture without adding enzyme and tested compounds as the background control. After subtracting the background hydrolysis, a linear fluorescence increase in 8 min was used for further inspection. The IC50 values were determined via fitting relative inhibition percentages with the varying concentrations of compounds in Microsoft Excel.

[1] = system: ShHTL7-ShMAX2 interaction; assay: Yeast two-hybrid assay ShHTL7-ShMAX2; assay type: cell-based, Striga hermonthica
Procedure: (§2) To construct plasmids for yeast two-hybrid assays, the CDS of ShHTL7 and AtD14 were cloned into yeast expression vector pBrigde to generate BD-ShHTL7 and BD-AtD14, and the CDS of ShMAX2, AtMAX2, SMAX1 were cloned into pGADT7 to make Gal4 DNA activation domain (AD) constructs, respectively. Primers used for yeast expression vector construction are listed in Supplementary Table 6. Yeast two-hybrid assays were performed using the Yeastmaker Yeast Transformation System 2 (Clontech). In brief, Yeast AH109 cells were co-transformed with specific bait and prey constructs and coated on selective growth medium SD/-Leu-Trp for 3 days at 30 °C, pick the positive constructs into liquid selective growth medium SD/-Leu-Trp shaking for 36 h at 30 °C. Washed yeast cells three times and diluted, made sure OD600 reached 2.5, then serial 10-fold dilutions of yeast cultures were spotted onto selective growth mediums that were supplemented with different concentrations of rac-GR24 and tested molecules, respectively. All yeast transformants were grown on a selective growth medium at 30 °C for 3 days.

ShHTL7-SMAX1 interaction = assay: Yeast two-hybrid assay ShHTL7-SMAX1; assay type: cell-based, Striga hermonthica
Procedure: as §2

ShHTL7 M219V = ShHTL7 M219V (Striga hermonthica, UniProt A0A0M3PNA2, M219V); assay: YLG competitive inhibition, ShHTL7 mutant M219V; assay type: biochemical
Chain of ShHTL7 M219V (A0A0M3PNA2 whole entry M219V): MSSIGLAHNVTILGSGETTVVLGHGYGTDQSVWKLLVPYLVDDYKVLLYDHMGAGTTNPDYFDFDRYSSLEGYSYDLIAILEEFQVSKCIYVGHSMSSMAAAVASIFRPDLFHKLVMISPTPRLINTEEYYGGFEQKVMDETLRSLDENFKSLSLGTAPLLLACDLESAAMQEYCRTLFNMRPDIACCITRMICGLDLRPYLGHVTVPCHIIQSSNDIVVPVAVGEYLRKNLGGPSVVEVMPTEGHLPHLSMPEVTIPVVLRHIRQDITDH
Excerpt: (§3) To clarify the dynamics of how the catalytic triad affects hydrolysis by ShHTL7, we performed MD simulations to study the differences between (R)-4a and (S)-4a (Supplementary Fig. 21). […] To further characterize our computational models, we performed mutation studies of the key residues in the active pockets that may have interactions with our molecules. Indeed, a number of the mutations of specific residues altered the IC50 values, supporting our simulated models (Supplementary Fig. 20b).
as §1
(§4) Supplementary Fig. 20. […]

ShHTL7 S95C = ShHTL7 S95C (Striga hermonthica, UniProt A0A0M3PNA2, S95C); assay: YLG competitive inhibition, ShHTL7 mutant S95C; assay type: biochemical
Chain of ShHTL7 S95C (A0A0M3PNA2 whole entry S95C): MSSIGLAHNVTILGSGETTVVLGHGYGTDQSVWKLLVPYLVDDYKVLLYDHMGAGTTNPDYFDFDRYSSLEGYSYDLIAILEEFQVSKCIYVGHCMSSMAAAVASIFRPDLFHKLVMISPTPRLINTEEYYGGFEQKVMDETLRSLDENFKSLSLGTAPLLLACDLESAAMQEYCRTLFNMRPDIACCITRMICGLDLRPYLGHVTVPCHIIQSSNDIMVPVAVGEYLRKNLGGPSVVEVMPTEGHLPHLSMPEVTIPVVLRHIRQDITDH
Excerpt: as §3, §1, §4

ShHTL7 L161A = ShHTL7 L161A (Striga hermonthica, UniProt A0A0M3PNA2, L161A); assay: YLG competitive inhibition, ShHTL7 mutant L161A; assay type: biochemical
Chain of ShHTL7 L161A (A0A0M3PNA2 whole entry L161A): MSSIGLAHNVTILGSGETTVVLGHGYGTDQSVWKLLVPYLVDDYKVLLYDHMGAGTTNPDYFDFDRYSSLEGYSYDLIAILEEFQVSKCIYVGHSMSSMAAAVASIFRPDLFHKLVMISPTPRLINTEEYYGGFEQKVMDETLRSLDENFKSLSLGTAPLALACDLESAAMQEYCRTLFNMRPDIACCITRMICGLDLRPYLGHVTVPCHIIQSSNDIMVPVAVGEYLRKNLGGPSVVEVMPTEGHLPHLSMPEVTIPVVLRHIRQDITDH
Excerpt: as §3, §1, §4

ShHTL7 T190F = ShHTL7 T190F (Striga hermonthica, UniProt A0A0M3PNA2, T190F); assay: YLG competitive inhibition, ShHTL7 mutant T190F; assay type: biochemical
Chain of ShHTL7 T190F (A0A0M3PNA2 whole entry T190F): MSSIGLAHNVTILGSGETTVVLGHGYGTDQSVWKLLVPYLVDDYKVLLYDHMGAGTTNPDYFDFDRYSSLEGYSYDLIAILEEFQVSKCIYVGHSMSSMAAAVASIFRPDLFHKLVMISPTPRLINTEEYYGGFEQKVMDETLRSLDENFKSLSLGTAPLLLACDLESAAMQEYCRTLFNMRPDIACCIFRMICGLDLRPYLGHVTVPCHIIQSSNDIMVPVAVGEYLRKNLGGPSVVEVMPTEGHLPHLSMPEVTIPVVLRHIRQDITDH
Excerpt: as §3, §1, §4

ShHTL7 Y26F = ShHTL7 Y26F (Striga hermonthica, UniProt A0A0M3PNA2, Y26F); assay: YLG competitive inhibition, ShHTL7 mutant Y26F; assay type: biochemical
Chain of ShHTL7 Y26F (A0A0M3PNA2 whole entry Y26F): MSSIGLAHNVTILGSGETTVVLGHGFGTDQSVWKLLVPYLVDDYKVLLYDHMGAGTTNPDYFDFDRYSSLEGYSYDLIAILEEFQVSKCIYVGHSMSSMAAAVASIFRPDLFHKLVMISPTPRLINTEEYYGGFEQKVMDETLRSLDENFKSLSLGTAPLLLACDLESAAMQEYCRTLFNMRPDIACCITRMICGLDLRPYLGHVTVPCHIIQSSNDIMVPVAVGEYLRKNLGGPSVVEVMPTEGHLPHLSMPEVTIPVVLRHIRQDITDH
Excerpt: as §3, §1, §4

ShHTL7 T157A = ShHTL7 T157A (Striga hermonthica, UniProt A0A0M3PNA2, T157A); assay: YLG competitive inhibition, ShHTL7 mutant T157A; assay type: biochemical
Chain of ShHTL7 T157A (A0A0M3PNA2 whole entry T157A): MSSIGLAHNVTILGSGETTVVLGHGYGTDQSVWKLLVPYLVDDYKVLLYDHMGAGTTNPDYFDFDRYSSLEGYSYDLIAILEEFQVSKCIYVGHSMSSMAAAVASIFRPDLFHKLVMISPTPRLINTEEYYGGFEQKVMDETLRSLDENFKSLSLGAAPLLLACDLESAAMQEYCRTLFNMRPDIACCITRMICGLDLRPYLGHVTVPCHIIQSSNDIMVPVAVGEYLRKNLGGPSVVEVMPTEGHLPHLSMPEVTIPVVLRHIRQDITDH
Excerpt: as §3, §1, §4

ShHTL7 T142K = ShHTL7 T142K (Striga hermonthica, UniProt A0A0M3PNA2, T142K); assay: YLG competitive inhibition, ShHTL7 mutant T142K; assay type: biochemical
Chain of ShHTL7 T142K (A0A0M3PNA2 whole entry T142K): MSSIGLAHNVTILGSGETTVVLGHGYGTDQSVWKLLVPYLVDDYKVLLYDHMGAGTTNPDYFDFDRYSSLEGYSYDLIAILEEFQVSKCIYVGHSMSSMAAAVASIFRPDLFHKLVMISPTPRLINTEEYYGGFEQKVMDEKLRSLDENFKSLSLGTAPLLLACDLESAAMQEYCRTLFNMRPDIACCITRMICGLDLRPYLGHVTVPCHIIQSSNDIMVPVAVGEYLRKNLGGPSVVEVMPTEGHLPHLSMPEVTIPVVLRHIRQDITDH
Excerpt: as §3, §1, §4

ShHTL7 T190G = ShHTL7 T190G (Striga hermonthica, UniProt A0A0M3PNA2, T190G); assay: YLG competitive inhibition, ShHTL7 mutant T190G; assay type: biochemical
Chain of ShHTL7 T190G (A0A0M3PNA2 whole entry T190G): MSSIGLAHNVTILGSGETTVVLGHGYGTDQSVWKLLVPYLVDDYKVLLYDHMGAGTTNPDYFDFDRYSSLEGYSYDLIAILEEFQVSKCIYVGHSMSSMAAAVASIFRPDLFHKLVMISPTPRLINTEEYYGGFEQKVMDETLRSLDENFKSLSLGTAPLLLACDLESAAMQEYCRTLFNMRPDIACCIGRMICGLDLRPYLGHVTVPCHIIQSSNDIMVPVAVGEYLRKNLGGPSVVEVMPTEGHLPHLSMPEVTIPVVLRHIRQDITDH
Excerpt: as §3, §1, §4

ShHTL7 L161M = ShHTL7 L161M (Striga hermonthica, UniProt A0A0M3PNA2, L161M); assay: YLG competitive inhibition, ShHTL7 mutant L161M; assay type: biochemical
Chain of ShHTL7 L161M (A0A0M3PNA2 whole entry L161M): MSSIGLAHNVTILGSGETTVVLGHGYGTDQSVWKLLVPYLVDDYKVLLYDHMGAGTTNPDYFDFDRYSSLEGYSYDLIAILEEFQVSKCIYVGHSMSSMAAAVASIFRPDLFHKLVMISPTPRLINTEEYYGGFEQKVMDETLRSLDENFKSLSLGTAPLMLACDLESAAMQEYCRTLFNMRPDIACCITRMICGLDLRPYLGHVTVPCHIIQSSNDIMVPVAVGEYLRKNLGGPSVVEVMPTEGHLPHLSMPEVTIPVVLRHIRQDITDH
Excerpt: as §3, §1, §4

ShHTL7 F134A = ShHTL7 F134A (Striga hermonthica, UniProt A0A0M3PNA2, F134A); assay: YLG competitive inhibition, ShHTL7 mutant F134A; assay type: biochemical
Chain of ShHTL7 F134A (A0A0M3PNA2 whole entry F134A): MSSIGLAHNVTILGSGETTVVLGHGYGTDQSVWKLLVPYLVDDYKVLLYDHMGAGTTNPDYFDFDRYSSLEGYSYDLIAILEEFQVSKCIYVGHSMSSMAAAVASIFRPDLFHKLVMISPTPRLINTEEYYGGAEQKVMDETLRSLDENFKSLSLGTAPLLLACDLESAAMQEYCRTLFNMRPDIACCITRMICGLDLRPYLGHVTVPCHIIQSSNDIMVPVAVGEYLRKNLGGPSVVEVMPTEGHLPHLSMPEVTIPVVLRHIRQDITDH
Excerpt: as §3, §1, §4

[2] = YLG as the substrate, read-out: Competitive AtD14 inhibitory activity IC50

Row | Structure (SMILES) | IC50 (AtD14; [2]) | induction of ShHTL7-ShMAX2 interaction (Y2H) ([1]; 0.01 μM (10 nM)) | induction of ShHTL7-ShMAX2 interaction (Y2H) ([1]; 1 μM) | induction of ShHTL7-SMAX1 interaction (Y2H) (ShHTL7-SMAX1 interaction; 1 μM) | induction of ShHTL7-SMAX1 interaction (Y2H) (ShHTL7-SMAX1 interaction; 200 μM) | IC50 (ShHTL7 M219V) | IC50 (ShHTL7 S95C) | IC50 (ShHTL7 L161A) | IC50 (ShHTL7 T190F) | IC50 (ShHTL7 Y26F) | IC50 (ShHTL7 T157A) | IC50 (ShHTL7 T142K) | IC50 (ShHTL7 T190G) | IC50 (ShHTL7 L161M) | IC50 (ShHTL7 F134A) | further results
1 | CC1=C[C@H](O/C=C2/C(=O)O[C@@H]3c4ccccc4C[C@H]23)OC1=O (racemic) [rac-GR24, reference compound] | – | – | – | – | – | – | – | – | – | – | – | – | – | – | – | IC50 (AtD14; source data of Fig. 4b and Supplementary Fig. 14, read-out: Competitive AtD14 inhibitory activity IC50, source data average): 6.54 µM
2 | CC1=CC(OC(=O)N2CCN(C(=O)COc3ccc(Br)cc3C)CC2)OC1=O (centres unmarked) [4a] | > 100 µM | could still promote the ShHTL7-ShMAX2 interaction | strongly induce the interaction | strongly induce the interaction | – | – | – | – | – | – | – | – | – | – | – | –
3 | CC1=CC(OC(=O)N2CCN(C(=O)COc3ccc(Br)cc3C)CC2)CC1=O (centres unmarked) [4g] | – | – | – | – | only weak ligand-induced interactions | – | – | – | – | – | – | – | – | – | – | –
4 | CC1=CC(CC(=O)N2CCN(C(=O)COc3ccc(Br)cc3C)CC2)OC1=O (centres unmarked) [4i] | – | – | – | – | almost no ligand-induced interactions were observed | – | – | – | – | – | – | – | – | – | – | induction of ShHTL7-ShMAX2 interaction (Y2H) ([1]; 200 μM): almost no ligand-induced interactions were observed
5 | CC1=C[C@@H](OC(=O)N2CCN(C(=O)COc3ccc(Br)cc3C)CC2)OC1=O [(R)-4a] | > 100 µM | – | – | – | did induce the interaction | 22 µM | 43.7 µM | 100 µM | 4.69 µM | 29.9 µM | 2.61 µM | 4.13 µM | 26.4 µM | 34.3 µM | 58.1 µM | induction of ShHTL7-SMAX1 interaction (Y2H) (ShHTL7-SMAX1 interaction; 1 and 5 μM): no ShHTL7-SMAX1 or ShHTL7-AtMAX2 interactions were detected
6 | CC1=C[C@H](OC(=O)N2CCN(C(=O)COc3ccc(Br)cc3C)CC2)OC1=O [(S)-4a] | > 100 µM | could still promote the ShHTL7-ShMAX2 interaction; also recorded: promoted ShHTL7-ShMAX2 interaction | strongly induce the interaction | strongly induce the interaction | – | 0.347 µM | 0.293 µM | 0.155 µM | 1.07 µM | 0.233 µM | 0.17 µM | 0.203 µM | 0.575 µM | 0.666 µM | 0.531 µM | –

Reference: article PMC9271048, “Probing strigolactone perception mechanisms with rationally designed small-molecule agonists stimulating germination of root parasitic weeds” (Nature Communications, 2022)
